Our source for the IC50 values is patent EP4737450A1 (Longwood Pharmaceuticals (Hangzhou) Co., Ltd, priority 2023, dated 2025).

Read-outs that look alike come from different tables or passages of the source.

One assay has as its target T1, plasma kallikrein (PKa) (Homo sapiens, UniProt P03952).
T1 construct: purchased R & D 2497-SE
The assay can be described thus: Inhibitory activity against plasma kallikrein in vitro (fluorescence intensity enzyme assay, Pro-Phe-Arg-AMC substrate). It counts as biochemical. The gist of the method:
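Fluorescence intensity enzyme assay with 10 nM enzyme and 60 µM Pro-Phe-Arg-AMC (final concentrations). Compounds in DMSO, tested in duplicate over a dose series. IC50 from nonlinear regression curve fitting.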

For another assay, the target named is KLK1 (Homo sapiens, UniProt P06870). Kind of assay: Inhibitory activity against KLK1 in vitro (biochemical assay). The source says: Test Example 1. Test of the inhibitory activities of the compounds of the present invention against plasma kallikrein (PKa), KLK1 and FXIa in vitro. […]
The target in the next assay is FXIa (Homo sapiens, UniProt P03951). Kind of assay: Inhibitory activity against FXIa in vitro (biochemical assay). As to the method: Test Example 1. Test of the inhibitory activities of the compounds of the present invention against plasma kallikrein (PKa), KLK1 and FXIa in vitro.
PKK (R & D, Cat # 2497-SE) and Pro-Phe-Arg-AMC (Nanjing Peptide, Cat # NJP23946) solutions were prepared in reaction buffer (50 mM Tris-HCl, pH 7.5, 250 mM NaCl). The final concentrations of enzyme protein and Pro-Phe-Arg-AMC in the reaction mixture were 10 nM and 60 µM, respectively. The starting concentration of the positive reference substance Avoralstat was 100 nM, 3-fold dilution, 10 + 0 dose. 0.05 µL of compound in 100% DMSO was delivered to a 384-well plate by an acoustic liquid delivery technique (Echo665; nanoliter range). Compound duplex test. 5 µL of 2 × enzyme solution was transferred to a 384 reaction plate and centrifuged at 1000 rpm for 1 minute, incubated at 25°C for 15 minutes; 5 µL of 2 × Pro-Phe-Arg-AMC solution was transferred to a 384 reaction plate, centrifuged at 1000 rpm for 1 minute, incubated at 25°C for 3 hours. […] IC50 values and nonlinear regression curve fitting were obtained using GraphPad Prism software.

The mark [1] stands for this setting: plasma kallikrein enzyme assay, Pro-Phe-Arg-AMC substrate, read-out: PKa IC50.

T1 sequence (P03952 391-638 limits assumed): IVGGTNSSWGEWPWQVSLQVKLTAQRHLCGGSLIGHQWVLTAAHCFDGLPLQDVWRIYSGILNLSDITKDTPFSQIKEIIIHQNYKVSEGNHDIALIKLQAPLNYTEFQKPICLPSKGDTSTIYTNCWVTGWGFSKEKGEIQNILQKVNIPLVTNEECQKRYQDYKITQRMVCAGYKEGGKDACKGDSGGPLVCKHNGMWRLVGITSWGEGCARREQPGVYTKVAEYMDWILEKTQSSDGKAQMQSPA
T1 sequence (P03952 20-390 partner limits assumed): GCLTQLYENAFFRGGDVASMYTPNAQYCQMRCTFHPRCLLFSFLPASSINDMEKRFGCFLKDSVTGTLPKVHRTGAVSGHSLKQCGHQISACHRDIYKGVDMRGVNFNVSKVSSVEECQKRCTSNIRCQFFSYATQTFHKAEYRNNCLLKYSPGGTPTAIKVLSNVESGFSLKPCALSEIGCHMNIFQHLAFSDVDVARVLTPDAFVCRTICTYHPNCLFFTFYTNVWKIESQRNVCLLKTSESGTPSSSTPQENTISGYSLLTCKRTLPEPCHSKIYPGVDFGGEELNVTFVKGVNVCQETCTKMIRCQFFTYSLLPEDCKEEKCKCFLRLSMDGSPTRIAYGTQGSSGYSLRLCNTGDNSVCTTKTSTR
FXIa, sequence (P03951 388-625 limits assumed): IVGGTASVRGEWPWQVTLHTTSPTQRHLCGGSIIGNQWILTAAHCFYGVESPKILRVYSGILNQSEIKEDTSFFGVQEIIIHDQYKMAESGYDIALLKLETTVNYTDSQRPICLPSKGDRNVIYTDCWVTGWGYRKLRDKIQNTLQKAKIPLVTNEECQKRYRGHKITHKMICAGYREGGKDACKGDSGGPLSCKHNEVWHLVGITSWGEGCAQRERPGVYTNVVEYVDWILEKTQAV
FXIa, sequence (P03951 19-387 partner limits assumed): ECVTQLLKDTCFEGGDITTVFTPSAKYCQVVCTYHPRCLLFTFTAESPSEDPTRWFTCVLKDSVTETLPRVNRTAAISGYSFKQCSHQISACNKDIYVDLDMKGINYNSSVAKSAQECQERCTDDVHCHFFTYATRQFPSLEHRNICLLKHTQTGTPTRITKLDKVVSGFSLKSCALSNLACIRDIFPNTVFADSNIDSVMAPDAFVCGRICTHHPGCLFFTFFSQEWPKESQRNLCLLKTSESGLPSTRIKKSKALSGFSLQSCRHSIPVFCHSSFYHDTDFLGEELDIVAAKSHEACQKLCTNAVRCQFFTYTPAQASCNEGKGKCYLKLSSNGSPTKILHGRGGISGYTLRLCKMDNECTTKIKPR
KLK1, sequence (P06870 25-262, species assumed): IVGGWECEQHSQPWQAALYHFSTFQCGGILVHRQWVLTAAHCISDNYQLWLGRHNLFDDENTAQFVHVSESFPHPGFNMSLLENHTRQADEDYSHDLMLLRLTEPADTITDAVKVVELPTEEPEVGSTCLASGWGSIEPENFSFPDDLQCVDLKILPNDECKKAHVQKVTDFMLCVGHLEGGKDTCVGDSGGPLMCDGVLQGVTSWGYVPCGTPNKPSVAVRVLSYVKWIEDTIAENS

Broadly, the IC50 is the point on the concentration scale where inhibition reaches its midpoint. On to `N#Cc1cc(N2CC3C(C2)C3(F)F)ccc1Cn1cnc(C(=O)NC2CCc3cc(N)ncc32)n1` (single isomer, unassigned) [Compound 54], for which the figures for the IC50 at plasma kallikrein (PKa) (setting [1]), against KLK1 (values given in µM) and on FXIa (values given in µM) were 0.46 nM, above 10 µM and above 10 µM, respectively.

For `Cc1cc(N)nc(C)c1CNC(=O)c1ccc(Cc2ccc3ncc(Cl)cc3c2)s1` [Compound 3, N-((6-amino-2,4-dimethylpyridin-3-yl)methyl)-5-((3-chloroquinolin-6-yl)methyl)thiophene-2-carboxamide], the IC50 at plasma kallikrein (PKa) (setting [1]) was 9.27 nM; at KLK1 (values in nM) it was below 0.5 µM; on FXIa (values in nM) it was below 0.5 µM.

On to `COCc1nn(Cc2ccc3ncc(Cl)cc3c2)cc1C(=O)NCc1c(C)cc(N)nc1C` [Compound 5, N-((6-amino-2,4-dimethylpyridin-3-yl)methyl)-1-((3-chloroquinolin-6-yl)methyl)-3-(methoxymethyl)-1H-pyrazole-4-carboxamide], for which the IC50 on plasma kallikrein (PKa) (setting [1]) is 0.6 nM; at KLK1 (values in nM), below 0.5 µM; against FXIa (values in nM), below 0.5 µM.

Turning to `Cc1cc(N)nc(C)c1CNC(=O)c1cn(Cc2cn3cc(C4CC4)ccc3n2)nn1` [Compound 6, N-((6-amino-2,4-dimethylpyridin-3-yl)methyl)-1-(6-cyclopropylimidazo[1,2-a]pyridin-2-yl)methyl-1H-1,2,3-triazole-4-carboxamide], the IC50 is 0.032 nM at plasma kallikrein (PKa) (setting [1]), below 0.5 µM at KLK1 (values in nM) and below 0.5 µM against FXIa (values in nM).

As to `Cc1cc(N)nc(C)c1CNC(=O)c1cnn(Cc2ccc(N3CC4C(C3)C4(F)F)cc2C#N)c1` (stereo not drawn) [Compound 7, N-((6-amino-2,4-dimethylpyridin-3-yl)methyl)-1-(2-cyano-4-(6,6-difluoro-3-azabicyclo[3.1.0]hexan-3-yl)benzyl)-1H-pyrazole-4-carboxamide], the IC50 on plasma kallikrein (PKa) (setting [1]) was below 0.051 nM; against KLK1 (values given in µM), above 10 µM; against FXIa (values given in µM) it was above 10 µM.

Regarding `N#Cc1cc(N2CC3C(C2)C3(F)F)ccc1Cn1cc(C(=O)NCc2ccc(C(=N)N)cc2)cn1` (stereo not drawn) [Compound 8], the values for the IC50 on plasma kallikrein (PKa) (setting [1]), on KLK1 (values in nM) and against FXIa (values in nM) were 1.22 nM, below 0.5 µM and below 0.5 µM, respectively.

For the compound `Cc1cc(N)nc(C)c1CNC(=O)c1cn(Cc2ccc3ncc(Cl)cc3c2)nn1` [Compound 9, N-((6-amino-2,4-dimethylpyridin-3-yl)methyl)-1-(3-chloroquinolin-6-yl)methyl-1H-1,2,3-triazole-4-carboxamide], the figures for the IC50 at plasma kallikrein (PKa) (setting [1]), at KLK1 (values in nM) and on FXIa (values in nM) were 0.406 nM, below 0.5 µM and below 0.5 µM, respectively.

Turning to `Cc1cc(N)nc(C)c1CNC(=O)c1cnn(Cc2ccc3ncc(Cl)cc3c2)c1` [Compound 10, N-((6-amino-2,4-dimethylpyridin-3-yl)methyl)-1-((3-chloroquinolin-6-yl)methyl)-1H-pyrazole-4-carboxamide], the IC50 at plasma kallikrein (PKa) (setting [1]) is 0.132 nM; against KLK1 (values given in µM) it was above 10 µM; on FXIa (values given in µM) it was above 10 µM.

On to `N=C(N)c1ccc(CNC(=O)c2cnn(Cc3ccc(Cn4ccccc4=O)cc3)c2)cc1` [Compound 12], for which the IC50 at plasma kallikrein (PKa) (setting [1]) is 1.62 nM; against KLK1 (values given in µM), above 10 µM; at FXIa (values given in µM) it was above 10 µM.

In the case of `Cc1cc(N)nc(C)c1CNC(=O)c1cc(Cc2ccc(Cn3ccccc3=O)cc2)ccn1` [Compound 13], the IC50 against plasma kallikrein (PKa) (PKa IC50, plasma kallikrein enzyme assay, Pro-Phe-Arg-AMC substrate) is 0.516 nM; on KLK1 (values given in µM), above 10 µM; against FXIa (values given in µM), above 10 µM.

In the case of `N=C(N)c1ccc(CNC(=O)c2cnn(Cc3cn4cc(C5CC5)ccc4n3)c2)cc1` [Compound 15], the IC50 was 0.898 nM at plasma kallikrein (PKa) (setting [1]), above 10 µM at KLK1 (values given in µM) and above 10 µM on FXIa (values given in µM).

As for `CCc1cc(N2CC3C(C2)C3(F)F)ccc1Cn1cc(C(=O)NCc2ccc(C(=N)N)cc2)cn1` (stereo not drawn) [Compound 16], the IC50 is 1.24 nM on plasma kallikrein (PKa) (setting [1]), above 10 µM against KLK1 (values given in µM) and above 10 µM on FXIa (values given in µM).

`Cc1cc(N)nc(C)c1CNC(=O)c1cnn(Cc2ccc(N3CC4C(C3)C4(F)F)cc2C#N)c1` (stereo not drawn) [Compound 20]: the IC50 on plasma kallikrein (PKa) (read-out: PKa IC50) is 0.155 nM; at FXIa (values given in µM), above 10 µM.

As to `Cc1cc(N)nc(C)c1CNC(=O)c1ncn(Cc2c(F)c(F)c(Cn3ccccc3=O)c(F)c2F)n1` [Compound 22], the IC50 at plasma kallikrein (PKa) (setting [1]) was 0.63 nM; against KLK1 (values given in µM) it was above 10 µM; on FXIa (values given in µM), above 10 µM.

Regarding `COCc1nn(Cc2ccc(Cn3cc(F)ccc3=O)cc2)cc1C(=O)NCc1c(C)cc(N)nc1C` [Compound 24], the values for the IC50 on plasma kallikrein (PKa) (setting [1]), on KLK1 (values given in µM) and against FXIa (values given in µM) were 0.175 nM, above 10 µM and above 10 µM, respectively.

For `Cc1nc(N)ccc1CNC(=O)c1ncn(Cc2ccc(Cn3ccccc3=O)cc2)n1` [Compound 27], the IC50 on plasma kallikrein (PKa) (setting [1]) was 1.48 nM; at KLK1 (values given in µM), above 10 µM; on FXIa (values given in µM), above 10 µM.

For the compound `COCc1nn(Cc2c(F)c(F)c(Cn3ccccc3=O)c(F)c2F)cc1C(=O)NCc1c(C)cc(N)nc1C` [Compound 28], the IC50 at plasma kallikrein (PKa) (setting [1]) was 2.33 nM; at KLK1 (values in nM) it was above 0.5 µM; against FXIa (values given in µM) it was above 10 µM.

Turning to `Cn1cnc2c1CC[C@H]2NC(=O)c1cn(Cc2cn3cc(C4CC4)ccc3n2)nn1` [Compound 35], the results for the IC50 at plasma kallikrein (PKa) (setting [1]), on KLK1 (values given in µM) and against FXIa (values given in µM) were 1.65 nM, above 10 µM and above 10 µM, respectively.

As for `N#Cc1cc(N2CC3C(C2)C3(F)F)ccc1Cn1cnc(C(=O)NCc2ccc3c(N)nccc3c2)n1` (stereo not drawn) [Compound 43], the IC50 is 0.92 nM at plasma kallikrein (PKa) (setting [1]), above 10 µM against KLK1 (values given in µM) and above 10 µM against FXIa (values given in µM).

`Cc1cc(N)nc(C)c1CNC(=O)c1nnc(Cc2ccc(Cn3ccccc3=O)cc2)[nH]1` [Compound 44]: the IC50 at plasma kallikrein (PKa) (setting [1]) was 0.39 nM; on KLK1 (values given in µM), above 10 µM; against FXIa (values given in µM), above 10 µM.

`Cc1cc(N)nc(C)c1CNC(=O)c1ncn(Cc2cn3cc(C4CC4)ccc3n2)n1` [Compound 47]: the IC50 on plasma kallikrein (PKa) (setting [1]) is 0.18 nM; against KLK1 (values given in µM), above 10 µM; against FXIa (values given in µM) it was above 10 µM.

As for `Cc1cc(N)nc(C)c1CNC(=O)c1noc(Cc2ccc(Cn3ccccc3=O)cc2)n1` [Compound 48], the IC50 on plasma kallikrein (PKa) (setting [1]) is 0.38 nM; against KLK1 (values given in µM), above 10 µM; against FXIa (values given in µM), above 10 µM.

Consider `COCc1nn(Cc2c(F)c(F)c(Cn3cc(F)ccc3=O)c(F)c2F)cc1C(=O)NCc1c(C)cc(N)nc1C` [Compound 49], for which the figures for the IC50 at plasma kallikrein (PKa) (setting [1]), at KLK1 (values given in µM) and against FXIa (values given in µM) were 2.78 nM, above 10 µM and above 10 µM, respectively.

In the case of `Cc1cc(N)nc(C)c1CNC(=O)c1ncn(C(C)c2ccc(Cn3ccccc3=O)cc2)n1` (stereo not drawn) [Compound 50], the IC50 on plasma kallikrein (PKa) (setting [1]) was 0.89 nM; on KLK1 (values given in µM), above 10 µM; on FXIa (values given in µM), above 10 µM.

In the case of `Cc1cc(N)nc(C)c1CNC(=O)c1nnn(Cc2ccc(Cn3ccccc3=O)cc2)n1` [Compound 55], the values for the IC50 at plasma kallikrein (PKa) (setting [1]), against KLK1 (values given in µM) and at FXIa (values given in µM) were 0.16 nM, above 10 µM and above 10 µM, respectively.

In the case of `Cc1cc(N)nc(C)c1CNC(=O)c1ncn(Cc2ccc(Cn3cccc(C)c3=O)cc2)n1` [Compound 56], the values for the IC50 at plasma kallikrein (PKa) (setting [1]), against KLK1 (values given in µM) and against FXIa (values given in µM) were 0.16 nM, above 10 µM and above 10 µM, respectively.

Take `COCc1nn(Cc2ccc(Cn3ccccc3=O)cc2)cc1C(=O)NCc1ncc2c(c1F)N(C)CC2` [Compound 146]: the IC50 on KLK1 (values given in µM) and against FXIa (values given in µM) was above 10 µM each time.

For `N#Cc1cc(N2CCC(F)(F)CC2)ccc1Cn1cc(C(=O)NCc2ccc(C(=N)N)cc2)cn1` [Compound 158], the IC50 at KLK1 (values given in µM) and at FXIa (values given in µM) was above 10 µM in each case.

For `COc1ccnc(CNC(=O)c2cn(Cc3ccc(Cn4ccccc4=O)cc3)nc2-c2c(C)cnn2C)c1F` [Compound 221, N-((3-fluoro-4-methoxypyridin-2-yl)methyl)-2',4'-dimethyl-1-(4-((2-oxopyridin-1(2H)yl)methyl)benzyl)-1H,2'H-[3,3'-bispyrazole]-4-carboxamide], the IC50 at KLK1 (values given in µM) and on FXIa (values given in µM) was above 10 µM throughout.

In the case of `N=C(N)c1ccc(CNC(=O)c2cnn(Cc3ccc(OCC4CC4)cc3)c2)cc1` [Compound 360], the IC50 on plasma kallikrein (PKa) (setting [1]) was found to be 3.29 nM.

For `Cn1cc(Cl)c2cnc(CNC(=O)c3cnn(Cc4ccc(Cn5ccccc5=O)cc4)c3)c(F)c21` [Compound 367], the IC50 at plasma kallikrein (PKa) (setting [1]) turned out to be 43 nM.

Consider `O=C(NCc1ncc2ccn(CCO)c2c1F)c1cnn(Cc2ccc(Cn3ccccc3=O)cc2)c1` [Compound 369, N-((7-fluoro-1-(2-hydroxyethyl)-1H-pyrrolo[3,2-c]pyridin-6-yl)methyl)-1-(4-((2-oxopyridin-1(2H)-yl)methyl]benzyl)-1H-pyrazole-4-carboxamide], for which the IC50 on plasma kallikrein (PKa) (setting [1]) was 787 nM.

As for `Cn1ncc2cnc(CNC(=O)c3cnn(Cc4ccc(Cn5ccccc5=O)cc4)c3)c(F)c21` [Compound 376], on plasma kallikrein (PKa) (setting [1]), the IC50 was 67 nM.

`COCc1nn(Cc2ccc(Cn3ccccc3=O)cc2)cc1C(=O)NCc1nccc(OC)c1F` [KVD900, reference compound]: the IC50 against KLK1 (values given in µM) and against FXIa (values given in µM) was above 10 µM in each case.

Regarding “N-((3-fluoro-4-methoxypyridin-2-yl)methyl)-3-(methoxymethyl)-1-(4-((2-oxo-2,3-dihydro-1H-pyrrolo[3,2-b]pyridin-1-yl)methyl]benzyl)-1H-pyrazole-4-carboxamide [Compound 113]”, the IC50 on plasma kallikrein (PKa) (setting [1]) is above 100 nM.
